Key:
[1] = compound: COc1cc2nccc(Oc3ccc(NC(=O)C4(C(=O)Nc5ccc(F)cc5)CC4)cc3)c2cc1OC [Cabozantinib]
[2] = compound: CC(=O)c1c(C)c2cnc(Nc3ccc(N4CCN(CCOCCOCCOCCNC(=O)COc5cccc6c5C(=O)N(C5CCC(=O)NC5=O)C6=O)CC4)cn3)nc2n(C2CCCC2)c1=O [BSJ-03-123]
[3] = compound: CCc1cnn2c(NCc3ccc[n+]([O-])c3)cc(N3CCCC[C@H]3CCO)nc12
[4] = compound: O=C(CCCCCCC(=O)Nc1ccccc1)NO [Vorinostat]
[5] = compound: Nc1cc(C(F)(F)F)c(-c2cc(N3CCOCC3)nc(N3CCOCC3)n2)cn1 [Buparlisib/NVP-BKM120]
[6] = compound: CC(=O)O[C@H]1C(=O)[C@@]2(C)[C@H]([C@H](OC(=O)c3ccccc3)[C@]3(O)C[C@H](OC(=O)[C@H](O)[C@@H](NC(=O)c4ccccc4)c4ccccc4)C(C)=C1C3(C)C)[C@]1(OC(C)=O)CO[C@@H]1C[C@@H]2O [Paclitaxel]
[7] = compound: CC1(CCN(CC1)C2=CN=C(C(=N2)N)C3=C(C(=CC=C3)Cl)Cl)N [SHP099]
[8] = compound: NC1(C(=O)N[C@@H](CCO)c2ccc(Cl)cc2)CCN(c2nc[nH]c3nccc2-3)CC1 [AZD5363]
[9] = compound: CCN1CCN(Cc2ccc(Nc3ncc(F)c(-c4cc(F)c5nc(C)n(C(C)C)c5c4)n3)nc2)CC1
[10] = compound: CCc1cnn2c(NCc3ccc[n+]([O-])c3)cc(N3CCCC[C@H]3CCO)nc12; test: GR value, 72 h; higher = faster growth (1 = untreated, <0 = killing);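 further: breast cancer and non-malignant breast epithelial lines, nine half-log doses, viable cells counted by Hoechst and LIVE/DEAD dye imaging versus time-zero plates and DMSO controls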
[11] = compound: CN(C)C(=O)c1cc2cnc(Nc3ccc(N4CCNCC4)cn3)nc2n1C1CCCC1 [LEE011/Ribociclib]; test: as above
[12] = compound: CN(C)C/C=C/C(=O)Nc1ccc(C(=O)Nc2cccc(Nc3ncc(Cl)c(-c4c[nH]c5ccccc45)n3)c2)cc1 [THZ1]; test: as above
[13] = compound: CN(C)C/C=C/C(=O)Nc1ccc(C(=O)N2CCC[C@@H](Nc3ncc(Cl)c(-c4c[nH]c5ccccc45)n3)C2)cc1 [THZ531]; test: as above
[14] = compound: CN1CC[C@H](c2c(O)cc(O)c3c(=O)cc(-c4ccccc4Cl)oc23)[C@H](O)C1 [Flavopiridol]; test: as above
[15] = compound: CC(=O)c1c(C)c2cnc(Nc3ccc(N4CCNCC4)cn3)nc2n(C2CCCC2)c1=O; test: as above
[16] = compound: CCN1CCN(Cc2ccc(Nc3ncc(F)c(-c4cc(F)c5nc(C)n(C(C)C)c5c4)n3)nc2)CC1; test: as above
[17] = compound: C=CC(=O)Nc1ccc(C(=O)Nc2[nH]nc3c2CN(C(=O)N[C@H](CN(C)C)c2ccccc2)C3(C)C)cc1 [YKL-5-124]; test: as above
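Wherever GR50, 72 h is given: breast cancer and non-malignant breast epithelial cell lines, Deep Dye Drop or Dye Drop imaging, nine half-log doses, GR normalized to time-zero plates and DMSO-only controls.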

MDAMB361
GR50, 72 h [1]: > 10 µM | GR50, 72 h [2]: 0.297 µM | GR50, 72 h [3]: 0.0118 µM | GR50, 72 h [4]: 0.762 µM | GR50, 72 h [5]: 0.218 µM | GR50, 72 h [6]: 0.00311 µM | GR50, 72 h [7]: > 10 µM | GR50, 72 h [8]: 0.654 µM | GR50, 72 h [9]: 0.00535 µM | GR value ([10]; 0.0001 µM): 1.02 GR | GR value ([10]; 0.0003162 µM): 1.06 GR | GR value ([10]; 0.001 µM): 0.999 GR | GR value ([10]; 0.003162 µM): 1.09 GR | GR value ([10]; 0.01 µM): 0.737 GR | GR value ([10]; 0.03162 µM): -0.473 GR | GR value ([10]; 0.1 µM): -0.284 GR | GR value ([10]; 0.3162 µM): -0.28 GR | GR value ([10]; 1 µM): -0.282 GR | GR value ([11]; 0.001 µM): 0.49 GR | GR value ([11]; 0.003162 µM): 0.396 GR | GR value ([11]; 0.01 µM): 0.306 GR | GR value ([11]; 0.03162 µM): 0.435 GR | GR value ([11]; 0.1 µM): 0.287 GR | GR value ([11]; 0.3162 µM): 0.0812 GR | GR value ([11]; 1 µM): 0.176 GR | GR value ([11]; 3.162 µM): -0.0126 GR | GR value ([11]; 10 µM): 0.2 GR | GR value ([12]; 0.0001 µM): 0.939 GR | GR value ([12]; 0.0003162 µM): 0.772 GR | GR value ([12]; 0.001 µM): 0.986 GR | GR value ([12]; 0.003162 µM): 0.521 GR | GR value ([12]; 0.01 µM): 0.463 GR | GR value ([12]; 0.03162 µM): 0.153 GR | GR value ([12]; 0.1 µM): -0.511 GR | GR value ([12]; 0.3162 µM): -0.804 GR | GR value ([12]; 1 µM): -0.71 GR | GR value ([13]; 0.0001 µM): 0.955 GR | GR value ([13]; 0.0003162 µM): 0.912 GR | GR value ([13]; 0.001 µM): 0.758 GR | GR value ([13]; 0.003162 µM): 0.849 GR | GR value ([13]; 0.01 µM): 1.06 GR | GR value ([13]; 0.03162 µM): 0.299 GR | GR value ([13]; 0.1 µM): -0.82 GR | GR value ([13]; 0.3162 µM): -0.756 GR | GR value ([13]; 1 µM): -0.539 GR | GR value ([14]; 0.0001 µM): 1.05 GR | GR value ([14]; 0.0003162 µM): 0.905 GR | GR value ([14]; 0.001 µM): 0.752 GR | GR value ([14]; 0.003162 µM): 0.73 GR | GR value ([14]; 0.01 µM): 0.942 GR | GR value ([14]; 0.03162 µM): 0.753 GR | GR value ([14]; 0.1 µM): 0.562 GR | GR value ([14]; 0.3162 µM): -0.0494 GR | GR value ([14]; 1 µM): -0.402 GR | GR value ([15]; 0.0003162 µM): 0.963 GR | GR value ([15]; 0.001 µM): 1.12 GR | GR value ([15]; 0.003162 µM): 0.976 GR | GR value ([15]; 0.01 µM): 0.78 GR | GR value ([15]; 0.03162 µM): 0.319 GR | GR value ([15]; 0.1 µM): 0.172 GR | GR value ([15]; 0.3162 µM): 0.0854 GR | GR value ([15]; 1 µM): 0.151 GR | GR value ([15]; 3.162 µM): 0.184 GR | GR value ([16]; 0.001 µM): 0.882 GR | GR value ([16]; 0.003162 µM): 0.631 GR | GR value ([16]; 0.01 µM): 0.227 GR | GR value ([16]; 0.03162 µM): 0.118 GR | GR value ([16]; 0.1 µM): 0.119 GR | GR value ([16]; 0.3162 µM): 0.121 GR | GR value ([16]; 1 µM): 0.0452 GR | GR value ([16]; 3.162 µM): -0.189 GR | GR value ([16]; 10 µM): -0.341 GR | GR value ([17]; 0.001 µM): 0.264 GR | GR value ([17]; 0.003162 µM): 0.0247 GR | GR value ([17]; 0.01 µM): -0.0567 GR | GR value ([17]; 0.03162 µM): -0.0052 GR | GR value ([17]; 0.1 µM): -0.0751 GR | GR value ([17]; 0.3162 µM): -0.226 GR | GR value ([17]; 1 µM): -0.188 GR | GR value ([17]; 3.162 µM): -0.358 GR | GR value ([17]; 10 µM): -0.881 GR
